Measured values reported in patent US6630338B2, “Removing deacetylase contaminant from cephalosporin C acylase using cationic surfactant” (Fujisawa Pharmaceutical Co., Ltd., priority 1996, dated 2003).

How the values were obtained:
deacetylase = assay: Residual contaminant deacetylase activity after addition of surfactant (deacetyl 7-ACA produced from GL7-ACA); type: biochemical; conditions: for residual activity (deacetylase): room temperature 16 hours, relative to activity before addition as 100
Procedure: (§1) Mutant CC acylase N-176 producing E. coli JM 109 (PCCN 176-2) FERM BP-3047 was cultured according to the method disclosed in Example 3 of Japanese Patent Unexamined Publication No. 584078 and the cells were harvested by centrifugation. The obtained cell pellets were disrupted with a homogenizer and soluble protein component was extracted with water, which was followed by centrifugation to remove debris, whereby a crude extract solution was obtained.
(§2) Polyethyleneimine was added to the crude extract solution obtained in the above-mentioned (1) to allow precipitation of the nucleic acid, which was followed by centrifugation to recover supernatant. This supernatant was applied to DEAE column equilibrated with phosphate buffer (pH 7.0), washed with water and eluted with 0.2M-NaCl. […] The activities of CC acylase and deacetylase in each sample before and after the addition of the surfactant were measured and the changes thereof were examined. The enzyme activity was calculated by quantitatively determining 7-ACA and deacetyl 7-ACA produced from GL7-ACA as a substrate.

CC acylase = assay: Residual CC acylase activity after addition of surfactant (7-ACA produced from GL7-ACA); type: biochemical, Pseudomonas; conditions: for residual activity (CC acylase): room temperature 16 hours, relative to activity before addition as 100
Procedure: as §1, §2

[1] = surfactant addition concentration 0.1%
[2] = surfactant addition concentration 0.3%
[3] = surfactant addition concentration 0.5%
[4] = surfactant concentration 0.1-0.3%

Compound | residual activity (deacetylase) (deacetylase; [1]) | residual activity (deacetylase) (deacetylase; [2]) | residual activity (deacetylase) (deacetylase; [3]) | residual activity (CC acylase) (CC acylase; [1]) | residual activity (CC acylase) (CC acylase; [2]) | residual activity (CC acylase) (CC acylase; [3]) | activity of contaminant deacetylase (deacetylase; [4]) | removal of deacetylase (deacetylase; surfactant concentration 0.5%) | CC acylase residual activity (CC acylase; [4]) [%]
CCCCCCCCCCCC[N+](C)(C)C.[Cl-] [Cation BB, dodecyltrimethyl ammonium chloride] | 55 | 45 | 5 | 100 | 100 | 85 |  |  | 
alkyl glycine [Nissan Anon LG] | 60 | 50 | 30 | 100 | 100 | 95 |  |  | 
alkyl(palm)dimethylbenzyl ammonium chloride [Cation F2-50] | 5 | 1 | 0 | 95 | 92 | 70 | not more than 5% | removed nearly completely | ≥ 90
alkyl(palm)trimethyl ammonium chloride [Cation FB] | 55 | 40 | 1 | 100 | 100 | 80 |  |  | 
polyoxyethylene octylphenyl ether [Nonion HS-210] | 50 | 50 | 45 | 100 | 100 | 100 |  |  | 
polyoxyethylenesorbitan monooleate [Nonion TO-221] | 50 | 50 | 45 | 100 | 100 | 100 |  |  | 
